What was measured:
Format in all cases: in vivo
[1] = system: galium (catchweed bedstraw, Galium aparine); assay: Test A postemergence, galium; settings: 0 to 100 scale, 0 no effect, 100 complete control
How it was run: (§1)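 Visual injury scored against untreated controls about 10 d after treatment, scale 0 = no effect to 100 = complete control. Compounds, formulated with surfactant in a non-phytotoxic solvent, went on as directed soil spray preemergence or onto 2–10 cm, one- to two-leaf plants postemergence; loam–sand soil, greenhouse.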

kochia (Kochia scoparia) [2] = assay: Test A preemergence, kochia; settings: 0 to 100 scale, 0 is no effect, 100 is complete control
How it was run: as §1

[3] = system: ryegrass, Italian (Lolium multiflorum); assay: Test A preemergence, Italian ryegrass; settings: 0 to 100 scale, 0 is no effect, 100 is complete control
How it was run: as §1

[4] = system: foxtail, giant (Setaria faberii); assay: Test A postemergence, giant foxtail; settings: 0 to 100 scale, 0 no effect, 100 complete control
How it was run: as §1

[5] = system: ragweed (common ragweed, Ambrosia elatior); assay: Test A preemergence, ragweed; settings: 0 to 100 scale, 0 is no effect, 100 is complete control
How it was run: as §1

kochia (Kochia scoparia) [6] = assay: Test A postemergence, kochia; settings: 0 to 100 scale, 0 no effect, 100 complete control
How it was run: as §1

[7] = system: barnyardgrass (Echinochloa crus-galli); assay: Test B flooded paddy test, barnyardgrass; settings: Flood, 250 g ai/ha, applied to paddy water, 2-leaf stage, visual evaluation after 13 to 15 d
How it was run: (§2)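 Pots flooded to 3 cm above the soil when treated, with test compound added straight to the water and the flood maintained. Treated plants were at the 2-leaf stage and stayed 13–15 d in greenhouse. Response versus untreated controls scored visually from 0 (no effect) to 100 (complete control).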

[8] = system: foxtail, giant (Setaria faberii); assay: Test A preemergence, giant foxtail; settings: 0 to 100 scale, 0 is no effect, 100 is complete control
How it was run: as §1

[9] = system: ducksalad (Heteranthera limosa); assay: Test B flooded paddy test, ducksalad; settings: Flood, 250 g ai/ha, applied to paddy water, 2-leaf stage, visual evaluation after 13 to 15 d
How it was run: as §2

corn (Zea mays) = assay: Test A postemergence, corn; settings: 0 to 100 scale, 0 no effect, 100 complete control
How it was run: as §1

[10] = system: ragweed (common ragweed, Ambrosia elatior); assay: Test A postemergence, ragweed; settings: 0 to 100 scale, 0 no effect, 100 complete control
How it was run: as §1

[11] = system: blackgrass (Alopecurus myosuroides); assay: Test A postemergence, blackgrass; settings: 0 to 100 scale, 0 no effect, 100 complete control
How it was run: as §1

[12] = system: sedge, umbrella (small-flower umbrella sedge, Cyperus difformis); assay: Test B flooded paddy test, umbrella sedge; settings: Flood, 250 g ai/ha, applied to paddy water, 2-leaf stage, visual evaluation after 13 to 15 d
How it was run: as §2

rice (Oryza sativa) = assay: Test B flooded paddy test, rice; settings: Flood, 250 g ai/ha, applied to paddy water, 2-leaf stage, visual evaluation after 13 to 15 d
How it was run: as §2

[13] = system: ryegrass, Italian (Lolium multiflorum); assay: Test A postemergence, Italian ryegrass; settings: 0 to 100 scale, 0 no effect, 100 complete control
How it was run: as §1

[14] = system: barnyardgrass (Echinochloa crus-galli); assay: Test A postemergence, barnyardgrass; settings: 0 to 100 scale, 0 no effect, 100 complete control
How it was run: as §1

[15] = system: wheat (Triticum aestivum); assay: Test A postemergence, wheat; settings: 0 to 100 scale, 0 no effect, 100 complete control
How it was run: as §1

[16] = system: pigweed (Amaranthus retroflexus); assay: Test A preemergence, pigweed; settings: 0 to 100 scale, 0 is no effect, 100 is complete control
How it was run: as §1

[17] = system: pigweed (Amaranthus retroflexus); assay: Test A postemergence, pigweed; settings: 0 to 100 scale, 0 no effect, 100 complete control
How it was run: as §1

[18] = system: barnyardgrass (Echinochloa crus-galli); assay: Test A preemergence, barnyardgrass; settings: 0 to 100 scale, 0 is no effect, 100 is complete control
How it was run: as §1

Structure (SMILES) | Plant response rating, Galium ([1]; 125 g ai/ha) | Plant response rating, Galium ([1]; 500 g ai/ha) | Kochia plant response rating (kochia (Kochia scoparia) [2]; 125 g ai/ha) | Kochia plant response rating (kochia (Kochia scoparia) [2]; 500 g ai/ha) | Ryegrass, Italian plant response rating ([3]; 125 g ai/ha) | Ryegrass, Italian plant response rating ([3]; 500 g ai/ha) | Plant response rating, Foxtail, Giant ([4]; 125 g ai/ha) | Plant response rating, Foxtail, Giant ([4]; 500 g ai/ha) | Ragweed plant response rating ([5]; 125 g ai/ha) | Ragweed plant response rating ([5]; 500 g ai/ha) | Plant response rating, Kochia (kochia (Kochia scoparia) [6]; 125 g ai/ha) | Plant response rating, Kochia (kochia (Kochia scoparia) [6]; 500 g ai/ha) | Plant response rating, Barnyardgrass (0 to 100 scale, 0 is no effect, 100 is complete control) [7] | Foxtail, Giant plant response rating ([8]; 125 g ai/ha) | Foxtail, Giant plant response rating ([8]; 500 g ai/ha) | Plant response rating, Ducksalad (0 to 100 scale, 0 is no effect, 100 is complete control) [9] | Plant response rating, Corn (corn (Zea mays); 125 g ai/ha) | Plant response rating, Corn (corn (Zea mays); 500 g ai/ha) | Plant response rating, Ragweed ([10]; 125 g ai/ha) | Plant response rating, Ragweed ([10]; 500 g ai/ha) | further results
Nc1nc(N[C@H](c2coc3ccccc23)C2CC2)ncc1C(F)(F)F [Compound 78] | 0 | 10 | 80 | 90 | 20 | 50 | 0 | 0 | 0 | 20 | 0 | 20 | 0 | 0 | 0 | 0 | 0 | 0 | 0 | 0 | Plant response rating, Blackgrass ([11]; 125 g ai/ha): 0; Plant response rating, Blackgrass ([11]; 500 g ai/ha): 0; Plant response rating, Sedge, Umbrella (0 to 100 scale, 0 is no effect, 100 is complete control) [12]: 0; Plant response rating, Rice (0 to 100 scale, 0 is no effect, 100 is complete control) (rice (Oryza sativa)): 0; Plant response rating, Ryegrass, Italian ([13]; 125 g ai/ha): 0; Plant response rating, Ryegrass, Italian ([13]; 500 g ai/ha): 0; Plant response rating, Barnyardgrass ([14]; 125 g ai/ha): 0; Plant response rating, Barnyardgrass ([14]; 500 g ai/ha): 0; Plant response rating, Wheat ([15]; 125 g ai/ha): 0; Plant response rating, Wheat ([15]; 500 g ai/ha): 0; Pigweed plant response rating ([16]; 125 g ai/ha): 0; Pigweed plant response rating ([16]; 500 g ai/ha): 20; Plant response rating, Pigweed ([17]; 125 g ai/ha): 60; Plant response rating, Pigweed ([17]; 500 g ai/ha): 70; Barnyardgrass plant response rating ([18]; 125 g ai/ha): 0; Barnyardgrass plant response rating ([18]; 500 g ai/ha): 0
Nc1nc(N[C@@H](c2coc3ccccc23)C2CC2)ncc1C(F)(F)F [Compound 79, N2-[(R)-3-benzofuranylcyclopropylmethyl]-5-(trifluoromethyl)-2,4-pyrimidinediamine] | 70 | 90 | 0 | 0 | 100 | 100 | 60 | 90 | 100 | 100 | 90 | 90 | 55 | 100 | 100 | 98 | 0 | 70 | 80 | 90 | Plant response rating, Blackgrass ([11]; 125 g ai/ha): 60; Plant response rating, Blackgrass ([11]; 500 g ai/ha): 90; Plant response rating, Sedge, Umbrella (0 to 100 scale, 0 is no effect, 100 is complete control) [12]: 95; Plant response rating, Rice (0 to 100 scale, 0 is no effect, 100 is complete control) (rice (Oryza sativa)): 10; Plant response rating, Ryegrass, Italian ([13]; 125 g ai/ha): 60; Plant response rating, Ryegrass, Italian ([13]; 500 g ai/ha): 80; Plant response rating, Barnyardgrass ([14]; 125 g ai/ha): 70; Plant response rating, Barnyardgrass ([14]; 500 g ai/ha): 100; Plant response rating, Wheat ([15]; 125 g ai/ha): 0; Plant response rating, Wheat ([15]; 500 g ai/ha): 20; Pigweed plant response rating ([16]; 125 g ai/ha): 90; Pigweed plant response rating ([16]; 500 g ai/ha): 100; Plant response rating, Pigweed ([17]; 125 g ai/ha): 100; Plant response rating, Pigweed ([17]; 500 g ai/ha): 100; Barnyardgrass plant response rating ([18]; 125 g ai/ha): 90; Barnyardgrass plant response rating ([18]; 500 g ai/ha): 100
CC[C@@H](Nc1ncc(C(F)(F)F)c(N)n1)c1coc2ccccc12 [Compound 80] | 70 | 90 | 90 | 100 | 70 | 100 | 0 | 0 | 100 | 100 | 80 | 90 | 90 | 90 | 100 | 85 | 20 | 50 | 90 | 90 | Plant response rating, Blackgrass ([11]; 125 g ai/ha): 0; Plant response rating, Blackgrass ([11]; 500 g ai/ha): 70; Plant response rating, Sedge, Umbrella (0 to 100 scale, 0 is no effect, 100 is complete control) [12]: 95; Plant response rating, Rice (0 to 100 scale, 0 is no effect, 100 is complete control) (rice (Oryza sativa)): 10; Plant response rating, Ryegrass, Italian ([13]; 125 g ai/ha): 0; Plant response rating, Ryegrass, Italian ([13]; 500 g ai/ha): 90; Plant response rating, Barnyardgrass ([14]; 125 g ai/ha): 40; Plant response rating, Barnyardgrass ([14]; 500 g ai/ha): 100; Plant response rating, Wheat ([15]; 125 g ai/ha): 30; Plant response rating, Wheat ([15]; 500 g ai/ha): 30; Pigweed plant response rating ([16]; 125 g ai/ha): 90; Pigweed plant response rating ([16]; 500 g ai/ha): 100; Plant response rating, Pigweed ([17]; 125 g ai/ha): 100; Plant response rating, Pigweed ([17]; 500 g ai/ha): 100; Barnyardgrass plant response rating ([18]; 125 g ai/ha): 90; Barnyardgrass plant response rating ([18]; 500 g ai/ha): 100
